Data reported in patent US5674432A, “Photochromic naphthopyran compounds” (Transitions Optical, Inc., priority 1995, dated 1997).

Experiments:
[1] = lambda max (UV) in diethylene glycol dimethyl ether solution by UV spectrophotometer; format: physicochemical; set-up: unit not given here; details: approximately 0.5 milligram per milliliter, wavelength in the ultraviolet range closest to the visible spectrum
Description: The compounds of the Examples and the Comparative Examples were dissolved in diethylene glycol dimethyl ether. The concentrations of the resulting solutions were approximately 0.5 milligram per milliliter. Each solution was tested in a UV spectrophotometer to determine the lambda max (U/V). The lambda max (UV) reported in Table 1 for each of the Examples is the wavelength in the ultraviolet range closest to the visible spectrum.

[2] = lambda max (VIS) of the activated (colored) form in a homopolymer of diethylene glycol bis(allyl carbonate); format: physicochemical
Description: (§1) Testing was done with selected photochromic naphthopyrans imbibed into test square polymerizates by a thermal transfer process. The test square polymerizates were prepared from a homopolymer of diethylene glycol bis(allyl carbonate) and measured 1/8 inch (0.3 centimeters)×2 inches (5.1 centimeters)×2 inches (5.1 centimeters). The test squares were imbibed by the following procedure. Each naphthopyran was dissolved .into toluene to form a 4 weight percent solution of the compound. A piece of No.4 Whatman filter paper was saturated with the naphthopyran toluene solution and allowed to air dry. The dried filter paper was placed on one side of the test square. A piece of untreated filter paper was placed on the other side of the polymeric test square and the resulting sandwich was placed between two flat aluminum metal plates. The entire assembly was then placed in an oven kept at 135° to 155° C. for a time sufficient to thermally transfer the naphthopyran into the polymeric test square. After cooling, each test square was washed with acetone.
The photochromic test squares of Part B were tested for photochromic response rates on an optical bench. Prior to testing on the optical bench, the photochromic test squares were exposed to 365 nanometer ultraviolet light for about 15 minutes to activate the photochromic compounds and then placed into a 76° C. oven for about 15 minutes to bleach or inactivate the photochromic compounds. The test squares were then cooled to room temperature, exposed to fluorescent room lighting for at least 2 hours and then kept covered for at least 2 hours prior to testing on an optical bench maintained at 75° F. (23.9° C.).
(§2) The optical bench comprises a 150 watt Xenon arc lamp, a tungsten lamp, power supplies for both lamps, condensing lenses as needed to maintain collimated light beams from both lamps, a remote controlled shutter, a copper sulfate bath acting as a heat sink for the arc lamp, a Schott WG-320 nm cut-off filter which removes short wavelength radiation, neutral density filter(s), a sample holder in which the sample to be tested is inserted, a photopic filter, light detector, and radiometer assembly, a strip chart recorder, and a means for maintaining the alignment of the aforestated components during testing.
(§3) The ΔOD/Min, which represents the sensitivity of the photochromic compound's response to UV light, was measured over the first five (5) seconds of UV exposure, then expressed on a per minute basis. The saturation optical density (OD) was taken under identical conditions as the ΔOD/Min, except UV exposure was continued for 20 minutes. The lambda max (VIS) reported in Table 2 is the wavelength in the visible spectrum at which the maximum absorption of the activated (colored) form of the photochromic compound in a homopolymer of diethylene glycol bis(allyl carbonate) occurs. The bleach rate (T 1/2) is the time interval in seconds for the absorbance of the activated form of the naphthopyran in the test squares to reach one half the highest absorbance at room temperature (75° F., 23.9° C.) after removal of the source of activating light.

[3] = photochromic response on an optical bench (sensitivity, saturation optical density, bleach rate) of imbibed test squares; format: physicochemical; details: for OD @ SATURATION: UV exposure continued for 20 minutes; for OD @ SATURATION / Δ OD/Min SENSITIVITY: 75° F. (23.9° C.); for Δ OD/Min SENSITIVITY: first five (5) seconds of UV exposure, expressed per minute; for BLEACH RATE T1/2: time for absorbance of activated form to reach one half the highest absorbance at room temperature (75° F., 23.9° C.) after removal of activating light
Description: as §1, with “The entire assembly was then placed in an oven kept at 135° to 155° C. for a time sufficient to thermally transfer the naphthopyran into the polymeric test square.” left out
The photochromic test squares of Part B were tested for photochromic response rates on an optical bench.
as §2
Change in optical density (ΔOD) of a sample was determined by inserting a photochromic test sample in the bleached state into the sample holder, adjusting the transmittance scale to 100%, opening the shutter from the Xenon lamp to provide ultraviolet radiation to change the sample from the bleached state to an activated (darkened) state, measuring the transmittance through the sample. The transmittance was measured by directing a beam of light from the tungsten lamp at a small angle normal to the surface of the sample, through the sample, and to a photopic filter, light detector and radiometer assembly. The photopic filter passes wavelengths such that the detector mimics the response of the human eye and produces output signals that are processed by the radiometer. The change in optical density was calculated according to the formula ΔOD=log(100/% Ta) where % Ta is the percent transmittance in the activated state and the logarithm is to the base 10.
as §3, with “occurs.” for “occurs. The bleach rate (T 1/2) is the time interval in seconds for the absorbance of the activated form of the naphthopyran in the test squares to reach one half the highest absorbance at room temperature (75° F., 23.9° C.) after removal of the source of activating light.”

[4] = cited from earlier work
[5] = vs 3,3-diphenyl-3H-naphtho[2,1-b]pyran and 5-, 7- or 9-methoxy compounds, U.S. Pat. No. 5,238,981

Structure (SMILES)	Lambda max (UV) [1]	LAMBDA MAX (VIS) [2] [nm]	OD @ SATURATION [3]	Δ OD/Min SENSITIVITY [3]	BLEACH RATE T1/2 [3] [min]	other results
C1=CC(c2ccccc2)(c2ccccc2)Oc2ccc3ccccc3c21 [Comparative Example 1, 3,3-diphenyl-3H-naphtho[2,1-b]pyran, reference compound]	359	430	0.36	0.87 Δ OD/Min	0.75	optical density at saturation ([4]; at room temperature and above): too low for use in optical applications; optical density change on exposure to ultraviolet light ([4]; at room temperature and above): changes too slowly; sensitivity on exposure to ultraviolet light ([4]; at room temperature and above): low
COc1ccc2c3c(ccc2c1)OC(c1ccccc1)(c1ccccc1)C=C3 [Comparative Example 2, 3,3-diphenyl-8-methoxy-3H-naphtho[2,1-b]pyran, reference compound]	376	473	0.73	1.25 Δ OD/Min	1.45	lambda max (UV), in words ([4]; near visible threshold range about 390 to 410 nanometers, U.S. Pat. No. 5,238,981): shifted towards the near visible threshold range; optical density at saturation, comparison in words [4, 5]: enhanced sensitivity and optical density at saturation; sensitivity, comparison in words [4, 5]: enhanced sensitivity
Cc1cccc(C2(c3ccccc3)C=Cc3c(ccc4c5c(ccc34)OC(C)C5)O2)c1 (stereo not drawn) [Example 1, 7-(phenyl)-7-(3-methylphenyl)-7H-2-methyl-2,3-dihydrofuro[3',2',:5,6]naphtho[2,1-b]pyran]	394					
CC1Cc2c(ccc3c4c(ccc23)OC(c2ccccc2)(c2ccccc2)C=C4)O1 (stereo not drawn) [Example 2, 7,7-diphenyl-7H-2-methyl-2,3-dihydrofuro[3',2',:5,6]naphtho[2,1-b]pyran]	394	488	0.66	1.35 Δ OD/Min	1.77	
CC1Cc2c(ccc3c4c(ccc23)OC(c2ccccc2)(c2cccc(C(F)(F)F)c2)C=C4)O1 (stereo not drawn) [Example 3, 7-(phenyl)-7-(3-trifluoromethylphenyl)-7H-2-methyl-2,3-dihydrofuro[3',2',:5,6]naphtho[2,1-b]pyran]	396	494	0.74	1.38 Δ OD/Min	2.18	
CC1Cc2c(ccc3c4c(ccc23)OC(c2ccccc2)(c2cccc(F)c2)C=C4)O1 (stereo not drawn) [Example 4, 7-(phenyl)-7-(3-fluorophenyl)-7H-2-methyl-2,3-dihydrofuro[3',2',:5,6]naphtho[2,1-b]pyran]	394	489	0.76	1.44 Δ OD/Min	1.82	
COc1cccc(C2(c3ccccc3)C=Cc3c(ccc4c5c(ccc34)OC(C)C5)O2)c1 (stereo not drawn) [Example 5, 7-(phenyl)-7-(3-methoxyphenyl)-7H-2-methyl-2,3-dihydrofuro[3',2',:5,6]naphtho[2,1-b]pyran]	395	495	0.74	1.43 Δ OD/Min	2.75	
COc1ccc(C2(c3ccccc3F)C=Cc3c(ccc4c5c(ccc34)OC(C)C5)O2)cc1 (stereo not drawn) [Example 6, 7-(2-fluorophenyl)-7-(4-methoxyphenyl)-7H-2-methyl-2,3-dihydrofuro[3',2',:5,6]naphtho[2,1-b]pyran]	393					
Cc1coc2ccc3c4c(ccc3c12)OC(c1ccccc1)(c1ccccc1)C=C4 [Example 7, 7,7-diphenyl-7H-3-methylfuro[3',2',:5,6]naphtho[2,1-b]pyran]	372					
C1=CC(c2ccccc2)(c2ccccc2)Oc2ccc3c4c(ccc3c21)OCCC4 [Example 8, 9,9-diphenyl-3H,9H-1,2-dihydronaphtho[2,1-b:6,5-b']dipyran]	382					
COc1ccc(C2(c3ccc(OC)cc3OC)C=Cc3c(ccc4c3ccc3oc(=O)cc(C)c34)O2)cc1 (stereo not drawn) [Example 9, 9-(2,4-dimethoxyphenyl)-9-(4'-methoxyphenyl)-1-methyl-3H,9H-naphtho[2,1-b:6,5-b']dipyran-3-one]	396					
COc1ccc(C2(c3ccc(OC)cc3OC)C=Cc3c(ccc4c3ccc3oc(C)cc(=O)c34)O2)cc1 (stereo not drawn) [Example 10, 9-(2,4-dimethoxyphenyl)-9-(4'-methoxyphenyl)-3-methyl-1H,9H-naphtho[2,1-b:6,5-b']dipyran-1-one]	384					
